Assay results reported in ChEMBL document CHEMBL3853332, “Pyrazolodiazepine derivatives with agonist activity toward Drosophila RYamide receptor” (Bioorg Med Chem Lett, 2016).
One block for each compound: values may come before it. The source made the active and inactive calls. The calls are words filed in the database; no cut-off is given here. Peptide text beside a SMILES is read from it.

Columns and labels:
[1] = biological target: T1, RYamide receptor (Drosophila melanogaster) (UniProt P25931); assay: Partial agonist activity at Drosophila melanogaster RYamide receptor expressed in wild type CHO-K1 cells assessed as increase in calcium level at 5 uM after 20 secs by luminescence assay relative to RYamide-1; type: cell-based
T1 sequence (whole entry): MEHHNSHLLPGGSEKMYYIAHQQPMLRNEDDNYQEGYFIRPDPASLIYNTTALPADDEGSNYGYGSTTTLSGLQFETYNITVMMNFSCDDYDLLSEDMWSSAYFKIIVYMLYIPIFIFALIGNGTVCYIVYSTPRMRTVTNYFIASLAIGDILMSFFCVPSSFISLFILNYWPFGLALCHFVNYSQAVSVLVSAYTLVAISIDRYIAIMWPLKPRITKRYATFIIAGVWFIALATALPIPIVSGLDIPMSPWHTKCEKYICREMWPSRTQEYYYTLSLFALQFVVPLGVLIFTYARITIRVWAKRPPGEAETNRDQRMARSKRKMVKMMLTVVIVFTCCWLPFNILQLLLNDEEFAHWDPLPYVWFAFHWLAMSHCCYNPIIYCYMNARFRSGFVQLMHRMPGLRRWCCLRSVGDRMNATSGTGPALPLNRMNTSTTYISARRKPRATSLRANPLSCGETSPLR

RYamide receptor = biological target: T2, RYamide receptor (Drosophila melanogaster, UniProt P25931); assay: Agonist activity at Drosophila melanogaster RYamide receptor expressed in wild type CHO-K1 cells assessed as increase in calcium level after 20 secs by luminescence assay; type: cell-based
T2 sequence (P25931 whole entry): T1 sequence (whole entry)

[2] = biological target: T1, RYamide receptor (Drosophila melanogaster); assay: Agonist activity at Drosophila melanogaster RYamide receptor expressed in wild type CHO-K1 cells assessed as increase in calcium level at 0.01 mM after 20 secs by luminescence assay; type: cell-based
[3] = biological target: T3, Neuropeptide F receptor (Drosophila melanogaster) (UniProt Q9VNM1); assay: Agonist activity at Drosophila melanogaster NPFR1 expressed in wild type CHO-K1 cells assessed as increase in calcium level at low nanomolar concentration after 20 secs by luminescence assay; type: functional, cell-based
T3 sequence (whole entry): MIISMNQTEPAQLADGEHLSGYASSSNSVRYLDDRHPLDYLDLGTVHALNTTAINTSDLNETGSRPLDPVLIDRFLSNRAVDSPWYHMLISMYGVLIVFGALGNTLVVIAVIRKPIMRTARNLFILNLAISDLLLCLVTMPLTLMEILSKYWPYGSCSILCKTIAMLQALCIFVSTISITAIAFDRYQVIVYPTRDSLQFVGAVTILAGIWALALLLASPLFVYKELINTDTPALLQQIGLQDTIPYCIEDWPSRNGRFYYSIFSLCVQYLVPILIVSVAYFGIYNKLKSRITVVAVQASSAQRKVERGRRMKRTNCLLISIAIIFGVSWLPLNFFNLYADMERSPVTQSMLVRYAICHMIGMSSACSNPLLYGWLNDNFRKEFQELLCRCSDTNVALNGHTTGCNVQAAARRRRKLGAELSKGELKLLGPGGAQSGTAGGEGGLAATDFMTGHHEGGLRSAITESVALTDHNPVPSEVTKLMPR

Compound: CC(C)CN1C[C@@H](CCCCN)N=C(SCCC(=O)NN)c2nn(CC(C)C)cc21
Activity [1]: 40%
EC50 (RYamide receptor): 20.9 µM
Activity [2]: Active

Compound: CC(C)CN1C[C@H](CCCCN)N=C(SCCC(N)=O)c2nn(CC(C)C)cc21
Activity [1]: 40%
EC50 (RYamide receptor): 6.1 µM
Activity [2]: Active

Compound: Cc1noc(C)c1CN1CC(Cc2ccccc2)NC(=O)c2nn(CCC3CCN(C(=O)OC(C)(C)C)CC3)cc21 (stereo not drawn)
Activity [1]: 40%
EC50 (RYamide receptor): 5.9 µM
Activity [2]: Active

Compound: CC(C)CN1C[C@H](CCCCN)NC(=S)c2nn(CC(C)C)cc21
Activity [1]: 40%
EC50 (RYamide receptor): 6.8 µM
Activity [2]: Active

Activity [3]: Active
Compound: CSCC[C@H](NC(=O)[C@@H](NC(=O)[C@H](CC(N)=O)NC(=O)[C@@H](NC(=O)[C@H](CC(=O)O)NC(=O)[C@H](CC(N)=O)NC(=O)[C@H](CCCCN)NC(=O)[C@H](CCCNC(=N)N)NC(=O)[C@@H]1CCCN1C(=O)[C@@H]1CCCN1C(=O)[C@H](CCCNC(=N)N)NC(=O)[C@H](CO)NC(=O)[C@H](CC(N)=O)NC(=O)[C@@H](N)CO)C(C)C)[C@@H](C)O)C(=O)N[C@@H](C)C(=O)N[C@@H](CC(=O)O)C(=O)N[C@@H](C)C(=O)N[C@@H](Cc1ccc(O)cc1)C(=O)N[C@@H](CCCCN)C(=O)N[C@@H](Cc1ccccc1)C(=O)N[C@@H](CC(C)C)C(=O)N[C@@H](CCC(N)=O)C(=O)N[C@@H](CC(=O)O)C(=O)N[C@@H](CC(C)C)C(=O)N[C@@H](CC(=O)O)C(=O)N[C@H](C(=O)N[C@@H](Cc1ccc(O)cc1)C(=O)N[C@@H](Cc1ccc(O)cc1)C(=O)NCC(=O)N[C@@H](CC(=O)O)C(=O)N[C@@H](CCCNC(=N)N)C(=O)N[C@@H](C)C(=O)N[C@@H](CCCNC(=N)N)C(=O)N[C@H](C(=O)N[C@@H](CCCNC(=N)N)C(=O)N[C@@H](Cc1ccccc1)C(=O)O)C(C)C)[C@@H](C)O (H-SNSRPPRKNDVNTMADAYKFLQDLDTYYGDRARVRF-OH)
